From patent EP2669276A1 (Université de Strasbourg, priority 2012, dated 2013)

Tests used:
hNPFF1 = molecular target: T1, hNPFF1 (Homo sapiens, UniProt Q9GZQ6); assay: Receptor binding assay with [3H]-FFRFamide on CHO cell membranes expressing SF-hNPFFR1; conditions: [3H]-FFRF-NH2 radioligand, mean of at least two experiments; for Ki: read-out: Ki NPFF1
T1 construct: The cDNA encoding the full-length human NPFFR1 and human NPFFR2; expressed in transfected cells
Description: (§1) The cDNA encoding the full-length human NPFFR1 and human NPFFR2 were subcloned into the pcDNA3 expression vector (Invitrogen, Cergy Pontoise, France) using standard molecular biology methods. A sequence encoding a signal sequence and a Flag epitope was fused to the 5' coding sequence of both hNPFFR1 and hNPFFR2 cDNA according to (Guan et al., 1992) resulting in a SF-hNPFFR1 and SF-hNPFFR2 constructs. These contructs were stably transfected into CHO cells.
(§2) Membranes from CHO cells stably expressing SF-hNPFFR1 or SF-hNPFFR2 were prepared as described (Becker et al., 1999). SF-hNPFFR1 or SF-hNPFFR2 membranes (10µg) were incubated for 30 min at 25 °C in a final volume of 0.5 ml containing 50 mM HEPES pH 7.4, 1 mM CaCl2, 1 mM MgCl2, 0.1% bovine serum albumin, 10 nM and 3 nM [^3H]-FFRFamide (CEA, Paris; specific activity, 13,6 Ci/mmol) for […], respectively and the ligands to be tested. Non-specific binding was determined in presence of 1 µM neuropeptide FF for SF-hNPFFR2 and 1 µM neuropeptide VF for SF -hNPFFR1. Typical total and nonspecific binding were 1200 and 200 dpm, respectively for SF-hNPFFR1 and SF-hNPFFR2. Incubation mixtures were rapidly filtered and washed with 50 mM HEPES pH 7.4, 1 mM CaCl2, 1 mM MgCl2, on 96 wells GF/B unifilter (Perkin Elmer). Unifilter plates where then dryied for 1hr at 65°C. Bound radioactivity was determined by scintillation counting with 30 µl of scintillation cocktail (O-scint, Perkin Elmer) per well on a Topcount scintillation apparatus (Perkin Elmer).

hNPFF2 = molecular target: T2, hNPFF2 (Homo sapiens, UniProt Q9Y5X5); assay: Receptor binding assay with [3H]-FFRFamide on CHO cell membranes expressing SF-hNPFFR2; conditions: [3H]-FFRF-NH2 radioligand, mean of at least two experiments; for Ki: read-out: Ki NPFF2
T2 construct: The cDNA encoding the full-length human NPFFR1 and human NPFFR2; expressed in transfected cells
Description: as §1, §2

T2 sequence (Q9Y5X5 whole entry): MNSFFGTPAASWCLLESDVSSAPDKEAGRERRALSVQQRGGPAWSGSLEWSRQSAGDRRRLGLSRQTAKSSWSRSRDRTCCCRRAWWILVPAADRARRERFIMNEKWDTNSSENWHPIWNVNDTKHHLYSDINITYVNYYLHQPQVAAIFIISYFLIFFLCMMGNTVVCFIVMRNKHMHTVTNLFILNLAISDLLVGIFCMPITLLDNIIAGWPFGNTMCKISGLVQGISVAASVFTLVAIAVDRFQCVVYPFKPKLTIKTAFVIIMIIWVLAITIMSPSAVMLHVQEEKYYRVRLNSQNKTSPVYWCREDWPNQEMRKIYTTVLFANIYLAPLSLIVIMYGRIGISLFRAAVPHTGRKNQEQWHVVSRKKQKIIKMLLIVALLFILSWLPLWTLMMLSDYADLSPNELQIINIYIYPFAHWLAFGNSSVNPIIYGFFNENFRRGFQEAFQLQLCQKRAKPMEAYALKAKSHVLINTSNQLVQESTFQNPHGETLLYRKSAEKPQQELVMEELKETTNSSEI
T1 sequence (Q9GZQ6 whole entry): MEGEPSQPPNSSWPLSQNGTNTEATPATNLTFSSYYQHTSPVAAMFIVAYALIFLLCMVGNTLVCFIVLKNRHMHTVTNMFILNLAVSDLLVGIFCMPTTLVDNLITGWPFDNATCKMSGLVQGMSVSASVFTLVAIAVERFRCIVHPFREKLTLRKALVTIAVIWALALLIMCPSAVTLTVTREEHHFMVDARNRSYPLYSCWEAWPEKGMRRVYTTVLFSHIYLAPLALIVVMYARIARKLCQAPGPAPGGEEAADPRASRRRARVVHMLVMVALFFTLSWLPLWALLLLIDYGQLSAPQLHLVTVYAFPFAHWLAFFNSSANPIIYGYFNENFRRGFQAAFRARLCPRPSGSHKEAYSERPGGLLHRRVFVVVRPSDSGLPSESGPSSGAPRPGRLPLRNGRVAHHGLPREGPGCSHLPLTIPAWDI

SMILES: COc1cccc(CN(C)CCC[C@H](NC(=O)c2ccccc2-c2ccccc2)C(=O)NCCc2ccccc2)c1 [Compound 22, (2S)-5-{[(3-methoxyphenyl)methyl](methyl)amino}-N-(2-phenylethyl)-2-[(2-phenylphenyl)formamido]pentanamide]
- inhibition at 0.5 µM (hNPFF1): 7 ± 6%
- inhibition at 5 µM (hNPFF1): 50 ± 2%
- inhibition at 0.5 µM (hNPFF2): 6%
- inhibition at 5 µM (hNPFF2): 39 ± 2%

SMILES: CN(CCC[C@H](NC(=O)c1ccccc1-c1ccccc1)C(=O)NCCc1ccccc1)CCc1ccccc1 [Compound 23, (2S)-5-[methyl(2-phenylethyl)amino]-N-(2-phenylethyl)-2-[(2-phenylphenyl)formamido]pentanamide]
- Ki (hNPFF1): 103 ± 15 nM
- inhibition at 0.5 µM (hNPFF2): 22 ± 3%
- inhibition at 5 µM (hNPFF2): 35 ± 8%

SMILES: O=C(N[C@@H](CCCN1CCc2ccccc2C1)C(=O)NCCc1ccccc1)c1ccccc1-c1ccccc1 [Compound 24, (2S)-N-(2-phenylethyl)-2-[(2-phenylphenyl)formamido]-5-(1,2,3,4-tetrahydroisoquinolin-2-yl)pentanamide]
- Ki (hNPFF1): 500 ± 10 nM
- Ki (hNPFF2): 320 ± 10 nM

SMILES: O=C(N[C@H](CCCN1CCc2ccccc2C1)C(=O)NCCc1ccccc1)c1ccccc1-c1ccccc1 [Compound 25, (2R)-N-(2-phenylethyl)-2-[(2-phenylphenyl)formamido]-5-(1,2,3,4-tetrahydroisoquinolin-2-yl)pentanamide]
- inhibition at 0.5 µM (hNPFF1): 14 ± 1%
- inhibition at 5 µM (hNPFF1): 51 ± 14%
- inhibition at 0.5 µM (hNPFF2): 0%
- inhibition at 5 µM (hNPFF2): 16 ± 5%

SMILES: O=C(N[C@H](CCCN1CCCCC1)C(=O)NCCc1ccccc1)c1ccccc1-c1ccccc1 [Compound 27, (2R)-N-(2-phenylethyl)-2-[(2-phenylphenyl)formamido]-5-(piperidin-1-yl)pentanamide]
- Ki (hNPFF1): 179 ± 64 nM
- inhibition at 0.5 µM (hNPFF2): 0%
- inhibition at 5 µM (hNPFF2): 13 ± 8%

SMILES: O=C(N[C@@H](CCCN1CCCCC1)C(=O)NCCCc1ccccc1)c1ccccc1-c1ccccc1 [Compound 28, (2S)-2-[(2-phenylphenyl)formamido]-N-(3-phenylpropyl)-5-(piperidin-1-yl)pentanamide]
- inhibition at 0.5 µM (hNPFF1): 16 ± 25%
- inhibition at 5 µM (hNPFF1): 41 ± 2%
- inhibition at 0.5 µM (hNPFF2): 0%
- inhibition at 5 µM (hNPFF2): 17%

SMILES: COc1ccc(-c2ccccc2C(=O)N[C@@H](CCCN2CCCCC2)C(=O)NCCCc2ccccc2)cc1 [Compound 29, (2S)-2-{[2-(4-methoxyphenyl)phenyl]formamido}-N-(3-phenylpropyl)-5-(piperidin-1-yl)pentanamide]
- Ki (hNPFF1): 170 ± 70 nM
- inhibition at 0.5 µM (hNPFF2): 0%
- inhibition at 5 µM (hNPFF2): 23 ± 5%

SMILES: COc1ccc(-c2ccccc2C(=O)N[C@@H](CCCN2CCCCCC2)C(=O)NCCCc2ccccc2)cc1 [Compound 30, (2S)-5-(azepan-1-yl)-2-{[2-(4-methoxyphenyl)phenyl]formamido}-N-(3-phenylpropyl)pentanamide]
- Ki (hNPFF1): 64 ± 32 nM
- Ki (hNPFF2): 76 ± 18 nM

SMILES: O=C(N[C@@H](CCCN1CCC(c2ccccc2)CC1)C(=O)NCCc1ccccc1)c1ccccc1-c1ccccc1 [Compound 31, (2S)-N-(2-phenylethyl)-2-[(2-phenylphenyl)formamido]-5-(4-phenylpiperidin-1-yl)pentanamide]
- Ki (hNPFF1): 485 ± 35 nM
- inhibition at 0.5 µM (hNPFF2): 0%
- inhibition at 5 µM (hNPFF2): 45 ± 7%

SMILES: O=C(N[C@@H](CCCN1CCC(Cc2ccccc2)CC1)C(=O)NCCc1ccccc1)c1ccccc1-c1ccccc1 [Compound 32, (2S)-5-(4-benzylpiperidin-1-yl)-N-(2-phenylethyl)-2-[(2-phenylphenyl)formamido]pentanamide]
- Ki (hNPFF1): 400 nM
- Ki (hNPFF2): 34 nM

SMILES: O=C(N[C@@H](CCCN1CCC(N2CCCCC2)CC1)C(=O)NCCc1ccccc1)c1ccccc1-c1ccccc1 [Compound 33, (2S)-N-(2-phenylethyl)-2-[(2-phenylphenyl)formamido]-5-[4-(piperidin-1-yl)piperidin-1-yl]pentanamide]
- Ki (hNPFF1): 71 ± 11 nM
- inhibition at 0.5 µM (hNPFF2): 13 ± 11%
- inhibition at 5 µM (hNPFF2): 55 ± 15%

SMILES: CN1CCN(CCC[C@H](NC(=O)c2ccccc2-c2ccccc2)C(=O)NCCc2ccccc2)CC1 [Compound 34, (2S)-5-(4-methylpiperazin-1-yl)-N-(2-phenylethyl)-2-[(2-phenylphenyl)formamido]pentanamide]
- Ki (hNPFF1): 232 ± 17 nM
- inhibition at 0.5 µM (hNPFF2): 0%
- inhibition at 5 µM (hNPFF2): 12 ± 5%

SMILES: CC(=O)N1CCN(CCC[C@H](NC(=O)c2ccccc2-c2ccccc2)C(=O)NCCc2ccccc2)CC1 [Compound 35, (2S)-5-(4-acetylpiperazin-1-yl)-N-(2-phenylethyl)-2-[(2-phenylphenyl)formamido]pentanamide]
- Ki (hNPFF1): 319 ± 13 nM
- inhibition at 0.5 µM (hNPFF2): 0%
- inhibition at 5 µM (hNPFF2): 0%

SMILES: O=C(N[C@@H](CCCN1CCOCC1)C(=O)NCCc1ccccc1)c1ccccc1-c1ccccc1 [Compound 36, (2S)-5-(morpholin-4-yl)-N-(2-phenylethyl)-2-[(2-phenylphenyl)formamido]pentanamide]
- inhibition at 0.5 µM (hNPFF1): 10 ± 3%
- inhibition at 5 µM (hNPFF1): 25 ± 10%
- inhibition at 0.5 µM (hNPFF2): 2%
- inhibition at 5 µM (hNPFF2): 25 ± 2%

SMILES: O=C(N[C@@H](CCCN1CCC(N2C(=O)Cc3ccccc32)CC1)C(=O)NCCc1ccccc1)c1ccccc1-c1ccccc1 [Compound 37, (2S)-5-[4-(2-oxo-2,3-dihydro-1H-indol-1-yl)piperidin-1-yl]-N-(2-phenylethyl)-2-[(2-phenylphenyl)formamido]pentanamide]
- inhibition at 0.5 µM (hNPFF1): 21 ± 6%
- inhibition at 5 µM (hNPFF1): 42 ± 3%
- inhibition at 0.5 µM (hNPFF2): 0%
- inhibition at 5 µM (hNPFF2): 45%

SMILES: CN(CCC[C@H](NC(=O)c1ccccc1-c1ccccc1)C(=O)NCCc1ccccc1)C1CCN(Cc2ccccc2)CC1 [Compound 38, (2S)-5-[(1-benzylpiperidin-4-yl)(methyl)amino]-N-(2-phenylethyl)-2-[(2-phenylphenyl)formamido]pentanamide]
- Ki (hNPFF1): 85 ± 20 nM
- Ki (hNPFF2): 40 ± 23 nM

SMILES: O=C(N[C@@H](CCCN1CCN(C(=O)c2ccccc2)CC1)C(=O)NCCc1ccccc1)c1ccccc1-c1ccccc1 [Compound 39, (2S)-5-(4-benzoylpiperazin-1-yl)-N-(2-phenylethyl)-2-[(2-phenylphenyl)formamido]pentanamide]
- Ki (hNPFF1): 187 ± 9 nM
- inhibition at 0.5 µM (hNPFF2): 0%
- inhibition at 5 µM (hNPFF2): 17%

SMILES: O=C(N[C@@H](CCCN1CCC(Cc2ccccc2)CC1)C(=O)NCCc1ccccc1)c1ccccc1 [Compound 40, (2S)-5-(4-benzylpiperidin-1-yl)-N-(2-phenylethyl)-2-(phenylformamido)pentanamide]
- inhibition at 0.5 µM (hNPFF1): 19 ± 3%
- inhibition at 5 µM (hNPFF1): 32 ± 1%
- inhibition at 0.5 µM (hNPFF2): 5 ± 3%
- inhibition at 5 µM (hNPFF2): 19 ± 1%

SMILES: O=C(N[C@@H](CCCN1CCC(Cc2ccccc2)CC1)C(=O)NCCc1ccccc1)c1ccccc1Cl [Compound 41, (2S)-5-(4-benzylpiperidin-1-yl)-2-[(2-chlorophenyl)formamido]-N-(2-phenylethyl)pentanamide]
- inhibition at 0.5 µM (hNPFF1): 0%
- inhibition at 5 µM (hNPFF1): 54 ± 3%
- inhibition at 0.5 µM (hNPFF2): 0%
- inhibition at 5 µM (hNPFF2): 41 ± 3%

SMILES: O=C(N[C@@H](CCCN1CCC(Cc2ccccc2)CC1)C(=O)NCCc1ccccc1)c1ccc2ccccc2n1 [Compound 42, (2S)-5-(4-benzylpiperidin-1-yl)-N-(2-phenylethyl)-2-(quinolin-2-ylformamido)pentanamide]
- inhibition at 0.5 µM (hNPFF1): 11 ± 15%
- inhibition at 5 µM (hNPFF1): 72 ± 11%
- inhibition at 0.5 µM (hNPFF2): 4 ± 10%
- inhibition at 5 µM (hNPFF2): 47%

SMILES: O=C(N[C@@H](CCCN1CCC(Cc2ccccc2)CC1)C(=O)NCCc1ccccc1)c1cccc(Cl)c1 [Compound 43, (2S)-5-(4-benzylpiperidin-1-yl)-2-[(3-chlorophenyl)formamido]-N-(2-phenylethyl)pentanamide]
- Ki (hNPFF1): 441 ± 80 nM
- Ki (hNPFF2): 147 ± 2 nM
